Laboratory results published in EP0370436A2, “Novel benzothiazole and benzimidazole derivatives and antiulcer agent containing the same” (MEIJI SEIKA KAISHA LTD., priority 1988, dated 1990).
Marks after values point to notes of the source that are not given here.

Columns and labels:
Type in all cases: in vivo
male Donryu rats [1] = assay: Aspirin-induced ulcer test; conditions: oral, 30 mg/5 ml/kg body weight, 1 h before Aspirin 300 mg/5 ml/kg oral, sacrificed after four hours
Description: A test compound suspended in 0.5% carboxymethylcellulose orally administered to male Donryu rats, which had been fasted for 24 hours, at a dose of 30 mg/5 ml/kg body weight. Similarly, 5 ml of 0.5% CMC was administered to a control group. One hour after the administration of the test compound, Aspirin suspended in 0.5% CMC was orally administered to the rats at a dose of 300 mg/5 ml/kg body weight. After four hours, each animal was sacrificed and the stomach was taken out and treated with an aqueous solution of formaldehyde to determine the ulceration inhibitory ratio in the same manner as in the submerged restrain stress ulcer test.

male Wister rats = assay: Submerged restraint stress ulcer test; conditions: Rattus norvegicus, oral, once, 30 mg/5 ml/kg body weight in 0.5% CMC, 1 h before 6 h water immersion restraint stress, read-out: Ulceration inhibitory ratio (%)
Description: A test compound as shown in Table 1 was suspended in 0.5% carboxymethylcellulose (CMC) and orally administered once to male Wister rats aged 11 weeks, which had been fasted for 18 hours, at a dose of 30 mg/5 ml/kg body weight. Similarly, 5 ml of 0.5% CMC was administered to a control group. One hour after the administration of the test compound, the rats were kept in restraining gages and immersed in water at 20 to 22°C up to the chest. Then, these animals were allowed to stand as such for six hours so as to load a stress. After pulling up from the water, each animal was sacrificed by vertebral cervical dislocation and the stomach was taken out. 5 ml of a 5% aqueous solution of formaldehyde was injected into the stomach and the stomach was immersed in said solution for 30 minutes for fixation. The specimen thus fixed was cut along the curvatura ventriculi major and the major axis of the formed ulcer was measured with a slide calipers (mm). The sum of the major axes of the total ulcers was made an ulcer index.
The ulceration inhibitory ratio was calculated according to the following equation: [formula]

male Donryu rats [2] = assay: Ethanol-induced ulcer test; conditions: oral, 50 mg/5 ml/kg body weight, 1 h before 100% ethanol 5 ml/kg oral, sacrificed after one hour
Description: A compound obtained in Example 2 was suspended in 0.5% CMC and orally administered to male Donryu rats, which had been fasted for 48 hours and abstained from water for 24 hours, at a dose of […]. Similarly, 5 ml of 0.5% CMC was administered to a control group. One hour after the administration of the test compound, 100% ethanol was orally administered to the rats at a dose of 5 ml/kg body weight. After one hour, each animal was sacrificed and the stomach was taken out and treated in the above-mentioned manner. Then, erosion formation in the stomach was observed.
As a result, in a control group to which 0.5% CMC was given alone, erosion was formed at a frequency of almost 100%. In contrast thereto, in a test group to which the test compound was administered at a dose of 50 mg/5 ml/kg body weight, erosion formation was inhibited at a frequency of almost 100%. 5. Acute toxicity

male Donryu rats [3] = assay: Histamine-induced ulcer test; conditions: oral, once, 30 mg/5 ml/kg, 1 h before histamine dihydrochloride 200 mg/5 ml/kg i.p., sacrificed after five hours
Description: A compound obtained in Example 2 was suspended in 0.5% CMC and orally administered once to male Donryu rats, which had been fasted for 24 hours, at a dose of 30 mg/5 ml/kg. Similarly, 5 ml of 0.5% CMC was administered to a control group. One hour after the administration of the test compound, a solution of histamine dihydrochloride in a physiological saline solution was intraperitoneally administered to the rats at a dose of 200 mg/5 ml/kg. After five hours, each animal was sacrificed and the stomach was taken out and treated with an aqueous solution of formaldehyde to determine the ulceration inhibitory ratio in the same manner as in the above-described submerged restrain stress ulcer test. As a result, the ulceration inhibitory ratio was 50%.

male ICR mice = assay: Acute toxicity; conditions: oral, once, 1,000 mg/10 ml/kg body weight in 0.5% CMC; three male ICR mice; observed for seven days
Text: A compound prepared in Example 2 was suspended in 0.5% CMC to give a predetermined concentration. Then, three male ICR mice aged 5 weeks were forced to orally take the above suspension once.

CCOCCSc1nc2cc(Cl)ccc2s1 [Example 1, 5-Chloro-2-[(2-ethoxyethyl)thio]benzothiazole] was tested, and the “Ulceration inhibitory ratio (%)” value (male Donryu rats [1]) was 21.3% and the inhibition in vivo at 30 mg/kg (male Wister rats) was 57%.
CCOCC[S+]([O-])c1nc2cc(Cl)ccc2s1 (stereo not shown) [Example 2, 5-Chloro-2-[(2-ethoxyethyl)sulfinyl]benzothiazole] was tested, and the “erosion formation was inhibited at a frequency of” value (male Donryu rats [2]) was roughly 100%, the ulceration inhibitory ratio (male Donryu rats [3]) was 50% and the “Ulceration inhibitory ratio (%)” value (male Donryu rats [1]) was 85* %. The inhibition in vivo at 30 mg/kg (male Wister rats) was 93% and the “acute toxicity (death of animals)” value (male ICR mice) was “no animal died”.
In the case of CCOCCS(=O)(=O)c1nc2cc(Cl)ccc2s1 [Example 3, 5-Chloro-2-[(2-ethoxyethyl)sulfonyl]benzothiazole], the inhibition in vivo at 30 mg/kg (male Wister rats) was 35.3%.
In the case of CCOCC[S+]([O-])c1nc2ccccc2s1 (stereo not shown) [Example 4, 2-[(2-Ethoxyethyl)sulfinyl]benzothiazole], the inhibition in vivo at 30 mg/kg (male Wister rats) was 59.9%.
Work on [O-][S+](CCO)c1nc2cc(Cl)ccc2s1 (stereo not shown) [Example 9, 5-Chloro-2-[(2-hydroxyethyl)sulfinyl]benzothiazole] yielded an inhibition in vivo at 30 mg/kg (male Wister rats) of 58.5%.
With [O-][S+](CCOCCOCCO)c1nc2cc(Cl)ccc2s1 (stereo not shown) [Example 11, 5-Chloro-2-[{2-(2-hydroxyethoxy)ethoxy}ethylsulfinyl]benzothiazole] the inhibition in vivo at 30 mg/kg (male Wister rats) was 63.5%.
CCOCC[S+]([O-])c1nc2ccccc2[nH]1 (stereo not shown) [Example 17, 2-[(2-Ethoxyethyl)sulfinyl]benzimidazole] showed an inhibition in vivo at 30 mg/kg (male Wister rats) of 73.6%.
Compound COc1ccc2[nH]c([S+]([O-])Cc3ncc(C)c(OC)c3C)nc2c1 (stereo not shown) [omeprazole, reference compound] has an inhibition in vivo at 30 mg/kg (male Wister rats) of 99%.
